Results on 31 molecules are retold here after patent US8916702B2 (priority 2012, dated 2014).

In general, pEC50 refers to the EC50 on a negative log10 scale, so that one unit is a factor of ten.

pEC50: −log10 of the molar value. Read-outs that look alike come from different tables or passages of the source.

The assay has as its system HCV pseudoparticles (genotype 1a HCV E1 and E2 envelope, H77C isolate). The assay can be described thus: microbe, parasite or virus in culture. Format: cell-based. To be noted: Hepatitis C virus.
Where [1] appears, read: Huh-7, read-out: Activity (EC50 class), HCV pseudoparticles (genotype 1a, H77C) in Huh7 cells, EC50 expressed as class A/B.
Setting [2] is: Huh-7, 48 h, HCV pseudoparticle infection of Huh7 cells, luciferase 2 days after infection, average of duplicates.
The mark [3] stands for this setting: Huh-7, 48 h, read-out: Activity (EC50 class), HCV pseudoparticle infection of Huh7 cells, luciferase 2 days after infection, EC50 expressed as class A/B.
The mark [4] stands for this setting: Huh-7, 48 h, read-out: Activity (EC50 class), HCV pseudoparticles, Huh7 cells, luciferase 2 days after infection, average of duplicates.
[5] abbreviates: Huh-7, 48 h, HCV pseudoparticles (genotype 1a, H77C) in Huh7 cells, average of duplicate, luciferase 2 days after infection.

Regarding `CCOc1ccc(NC(=O)C(=O)NCC[C@H](NC(=O)c2ccc(Nc3nc(NC4(c5ccc(Cl)cc5)CC4)nc(OCC(F)(F)F)n3)cc2)C(=O)O)cc1` [Compound 3548], the pEC50 under setting [1] is 8.00 to 11.00.

With `O=C(NCc1cc(F)cc(F)c1)C(=O)NC[C@H](NC(=O)c1ccc(Nc2nc(NC3(c4ccc(Cl)cc4)CC3)nc(OCC(F)(F)F)n2)cc1)C(=O)O` [Compound 1173], the negative logarithm of the EC50 (pEC50) is 9.13 under setting [2] and 8.00 to 11.00 under setting [3].

As for `COC(=O)[C@H](CCNC(=O)C(=O)N[C@@H]1C[C@@H]2CC[C@H]1C2)NC(=O)c1ccc(Nc2nc(NC3(c4ccc(Cl)cc4)CC3)nc(OCC(F)(F)F)n2)cc1` [Compound 1102], under setting [3], the negative logarithm of the EC50 (pEC50) is 8.00 to 11.00.

Turning to `O=C(NCC[C@H](NC(=O)c1ccc(Nc2nc(NC3(c4ccc(Cl)cc4)CC3)nc(OCC(F)(F)F)n2)cc1)C(=O)O)C(=O)Nc1ccc(O)nc1` [Compound 3646], the pEC50 under setting [4] is 8.00 to 11.00.

In the case of `CCOC(=O)[C@H](CCNC(=O)C(=O)NC)NC(=O)c1ccc(Nc2nc(NC3(c4ccc(Cl)cc4)CC3)nc(OCC(F)(F)F)n2)cc1` [Compound 1027, (S)-ethyl 2-(4-(4-(1-(4-chlorophenyl)cyclopropylamino)-6-(2,2,2-trifluoroethoxy)-1,3,5-triazin-2-ylamino)benzamido)-4-(2-(methylamino)-2-oxoacetamido)butanoate], the pEC50 under setting [3] is 8.00 to 11.00.

As for `CC(C)(CNC(=O)C(=O)Nc1nc2c(s1)CCCC2)CNC(=O)c1ccc(Nc2nc(NC3(c4ccc(Cl)cc4)CC3)nc(OCC(F)(F)F)n2)cc1` [Compound 3350], the negative-log EC50 (pEC50) under setting [1] is 8.00 to 11.00.

Regarding `COC(=O)[C@H](CCNC(=O)C(=O)NCc1ccccc1)NC(=O)c1ccc(Nc2nc(NC3(c4ccc(Cl)cc4)CC3)nc(OCC(F)(F)F)n2)cc1` [Compound 1142], the negative-log EC50 (pEC50) under setting [3] is 8.00 to 11.00.

Regarding `Cc1cc(C)nc(N(C)c2ccc(NC(=O)C(=O)NC/C(=N/C(=O)c3ccc(Nc4nc(NC5(c6ccc(Cl)cc6)CC5)nc(OCC(F)(F)F)n4)cc3)C(=O)O)cc2)n1` [Compound 3171], the pEC50 under setting [1] was 8.00 to 11.00.

`COC(=O)[C@@H](CCNC(=O)C(=O)Nc1cccc(OCc2ccccc2)c1)NC(=O)c1ccc(Nc2nc(NC3(c4ccc(Cl)cc4)CC3)nc(OCC(F)(F)F)n2)cc1` [Compound 3571]: the negative-log EC50 (pEC50) under setting [1] was 8.00 to 11.00.

Consider `CC(C)(CNC(=O)C(=O)Nc1nc2ccc(S(N)(=O)=O)cc2s1)CNC(=O)c1ccc(Nc2nc(NC3(c4ccc(Cl)cc4)CC3)nc(OCC(F)(F)F)n2)cc1F` [Compound 3678], for which the pEC50 under setting [4] is 8.00 to 11.00.

Take `COC(=O)[C@H](CNC(=O)C(=O)Nc1cccc(Oc2ccccn2)c1)NC(=O)c1ccc(Nc2nc(NC3(c4ccc(Cl)cc4)CC3)nc(OCC(F)(F)F)n2)cc1` [Compound 3726]: the pEC50 under setting [4] was 8.00 to 11.00.

As for `Cc1cc(NC(=O)C(=O)NCC(C)(C)CNC(=O)c2ccc(Nc3nc(NC4(c5ccc(Cl)cc5)CC4)nc(OCC(F)(F)F)n3)cc2)no1` [Compound 1548], the pEC50 under setting [3] was 8.00 to 11.00.

As for `COC(=O)[C@H](CNC(=O)C(=O)Nc1cccc(S(C)(=O)=O)c1)NC(=O)c1ccc(Nc2nc(NC3(c4ccc(Cl)cc4)CC3)nc(OCC(F)(F)F)n2)cc1` [Compound 3707], the negative logarithm of the EC50 (pEC50) under setting [4] is 8.00 to 11.00.

As to `CN(C)C(=O)C(=O)NC[C@H](NC(=O)c1ccc(Nc2nc(NC3(c4ccc(Cl)cc4)CC3)nc(OCC(F)(F)F)n2)cc1)C(=O)O` [Compound 1007, (S)-2-(4-(4-(1-(4-chlorophenyl)cyclopropylamino)-6-(2,2,2-trifluoroethoxy)-1,3,5-triazin-2-ylamino)benzamido)-3-(2-(dimethylamino)-2-oxoacetamido)propanoic acid], the negative-log EC50 (pEC50) under setting [3] was 8.00 to 11.00.

In the case of `COC(=O)[C@H](CNC(=O)C(=O)Nc1ccc(-n2nc(C)cc2C)cc1)NC(=O)c1ccc(Nc2nc(NC3(c4ccc(Cl)cc4)CC3)nc(OCC(F)(F)F)n2)cc1` [Compound 3109], under setting [1], the negative-log EC50 (pEC50) is 8.00 to 11.00.

On to `O=C(Nc1cccc(F)c1)C(=O)N(CCO)CCCNC(=O)c1ccc(Nc2nc(NC3(c4ccc(Cl)cc4)CC3)nc(OCC(F)(F)F)n2)cc1` [Compound 3497], for which the pEC50 under setting [1] is 8.00 to 11.00.

Regarding `O=C(NC[C@H](NC(=O)c1ccc(Nc2nc(NC3(c4ccc(Cl)cc4)CC3)nc(OCC(F)(F)F)n2)cc1)C(=O)O)C(=O)Nc1ccc(Oc2ccc(Cl)cc2Cl)cc1` [Compound 3753], the pEC50 under setting [4] was 8.00 to 11.00.

Turning to `O=C(N[C@H](CCNC(=O)c1ccc(Nc2nc(NC3(c4ccc(Cl)cc4)CC3)nc(OCC(F)(F)F)n2)cc1)C(=O)O)C(=O)N1CCc2ccccc2C1` [Compound 3495], the pEC50 under setting [1] was 8.00 to 11.00.

Consider `CC(C)(CNC(=O)C(=O)Nc1ccc2[nH]nnc2c1)CNC(=O)c1ccc(Nc2nc(NC3(c4ccc(Cl)cc4)CC3)nc(OCC(F)(F)F)n2)cc1` [Compound 3352], for which the pEC50 under setting [1] was 8.00 to 11.00.

Turning to `CC(C)(CNC(=O)C(=O)Nc1ccc(OC(F)F)cc1)CNC(=O)c1ccc(Nc2nc(NC3(c4ccc(Cl)cc4)CC3)nc(OCC(F)(F)F)n2)cc1` [Compound 3146], the pEC50 is, setting by setting: under setting [5], 10.30; under setting [1], 8.00 to 11.00.

Take `COC(=O)[C@H](CCNC(=O)C(=O)NCCn1ccnc1C)NC(=O)c1ccc(Nc2nc(NC3(c4ccc(Cl)cc4)CC3)nc(OCC(F)(F)F)n2)cc1` [Compound 1323]: the negative-log EC50 (pEC50) by setting is: under setting [2], 8.20; under setting [3], 8.00 to 11.00.

Take `COC(=O)[C@H](CCNC(=O)C(=O)Nc1cccc(OCc2ccccc2)c1)NC(=O)c1ccc(Nc2nc(NC3(c4ccc(Cl)cc4)CC3)nc(OCC(F)(F)F)n2)cc1` [Compound 3612]: the pEC50 under setting [4] is 8.00 to 11.00.

Regarding `COC(=O)[C@H](CCNC(=O)C(=O)Nc1ccc(-n2ccnc2)cc1)NC(=O)c1ccc(Nc2nc(NC3(c4ccc(Cl)cc4)CC3)nc(OCC(F)(F)F)n2)cc1` [Compound 3300], under setting [1], the negative logarithm of the EC50 (pEC50) is 6.00 to 8.00.

For the molecule `Cc1csc(-c2cccc(NC(=O)C(=O)NCC[C@H](NC(=O)c3ccc(Nc4nc(NC5(c6ccc(Cl)cc6)CC5)nc(OCC(F)(F)F)n4)cc3)C(=O)O)c2)n1` [Compound 3649], under setting [4], the negative logarithm of the EC50 (pEC50) was 8.00 to 11.00.

For `COC(=O)[C@H](CNC(=O)C(=O)Nc1ccc(-c2cc[nH]n2)cc1)NC(=O)c1ccc(Nc2nc(NC3(c4ccc(Cl)cc4)CC3)nc(OCC(F)(F)F)n2)cc1` [Compound 3193], the negative logarithm of the EC50 (pEC50) by setting is: under setting [5], 8.99; under setting [1], 8.00 to 11.00.

Consider `O=C(NC[C@H](NC(=O)c1ccc(Nc2nc(NC3(c4ccc(Cl)cc4)CC3)nc(OCC(F)(F)F)n2)cc1)C(=O)O)C(=O)Nc1cccc(S(=O)(=O)C(F)(F)F)c1` [Compound 3766], for which the pEC50 under setting [4] was 8.00 to 11.00.

For the molecule `CC(C)(CNC(=O)C(=O)Nc1ccc(/C=C/c2ccccc2)cc1)CNC(=O)c1ccc(Nc2nc(NC3(c4ccc(Cl)cc4)CC3)nc(OCC(F)(F)F)n2)cc1F` [Compound 3564], the pEC50 under setting [1] was 8.00 to 11.00.

Take `COC(=O)[C@H](CCNC(=O)C(=O)Nc1ccc(N2CCC(C(C)=O)CC2)cc1)NC(=O)c1ccc(Nc2nc(NC3(c4ccc(Cl)cc4)CC3)nc(OCC(F)(F)F)n2)cc1` [Compound 3303]: the negative logarithm of the EC50 (pEC50) is 8.25 under setting [5] and 8.00 to 11.00 under setting [1].

Consider `O=C1CC(NC(=O)C(=O)NCC[C@H](NC(=O)c2ccc(Nc3nc(NC4(c5ccc(Cl)cc5)CC4)nc(OCC(F)(F)F)n3)cc2)C(=O)O)CCN1` (stereo partly drawn) [Compound 1116], for which, under setting [3], the pEC50 was 6.00 to 8.00.

Consider `Cc1ccc(NC(=O)C(=O)NCC(C)CNC(=O)c2ccc(Nc3nc(NC4(c5ccc(Cl)cc5)CC4)nc(OCC(F)(F)F)n3)cc2)cc1` (stereo not drawn) [Compound 3353], for which the pEC50 under setting [1] was 8.00 to 11.00.

Regarding `Cc1ccc(NC(=O)C(=O)NCC2(CNC(=O)c3ccc(Nc4nc(NC5(c6ccc(Cl)cc6)CC5)nc(OCC(F)(F)F)n4)cc3)CC2)cc1` [Compound 1600], the pEC50 under setting [3] is 8.00 to 11.00.
